Data: US20070014734A1, “Glucuronidated nebivolol metabolites” (priority 2005, published 2007)

How the values were obtained:
[1] = test system: Human Umbilical Vein Endothelial Cells (HUVEC); assay: Acute NO release from HUVEC of white and black American donors, electrochemical nanosensors; assay type: cell-based; details: for Acute NO Release, Black Donors NO: HUVEC from black American donors; for Acute NO Release, Black Donors NO / Acute NO Release, White Donors NO: acute treatment 1.0 μM, mean±S.D. (n=5); for Acute NO Release, White Donors NO: HUVEC from white donors; for Acute [NO]/[ONOO−] Release Ratio, Black Donors / Acute [NO]/[ONOO−] Release Ratio, White Donors: ratio of NO (Table 1) to ONOO− (Table 3); for NO release after acute treatment (in words): endothelial cells from both white and black American donors, 1.0 μM
Protocol: The acute effects of nebivolol racemate, its separate enantiomers, and four stereoselective glucuronide metabolites on endothelial-dependent NO release were tested in Human Umbilical Vein Endothelial Cells (HUVEC). The tissue is isolated from normotensive white and black American donors with matched risk factor profiles. Production of NO is recorded using electrochemical nanosensors following acute treatment with the drugs at 1.0 μM (n=5).
(§1) The donors were between 20-25 years of age, with a mean body mass index (in kg/m^2), of 22.6±1.4 for white donors and 23.1±1.7 for black donors. The identification of race was defined by self report. For FIGS. 1-3, the HUvEC samples were obtained from American Type Culture Collection (Manassas, Va.).
The baseline is stabilized after about 20 seconds.
Nanosensors are prepared from carbon fibers.

human endothelial cells = assay: Acute ONOO− (peroxynitrite) release from human endothelial cells of white and black donors; assay type: cell-based; details: acute treatment; for Acute ONOO− Release, Black Donors ONOO−: endothelial cells from black donors; for Acute ONOO− Release, White Donors ONOO−: endothelial cells from white donors; for ONOO− (peroxynitrite) release (in words): human endothelial cells
From the text: as §1, with “Va.). […] However, the amount of OONO^− produced for any of the metabolites was less than that observed for nebivolol. The ratio of NO to OONO^− produced by nebivolol and its glucuronide metabolites was similar following acute administration (Table 4).” for “Va.).”

Row | Structure (SMILES) | Acute NO Release, Black Donors NO [1] [nM] | Acute NO Release, White Donors NO [1] [nM] | Acute [NO]/[ONOO−] Release Ratio, Black Donors [1] | NO release after acute treatment (in words) [1] | Acute [NO]/[ONOO−] Release Ratio, White Donors [1] | Acute ONOO− Release, Black Donors ONOO− (human endothelial cells) [nM] | Acute ONOO− Release, White Donors ONOO− (human endothelial cells) [nM] | ONOO− (peroxynitrite) release (in words) (human endothelial cells)
1 | OC(CNCC(O)C1CCc2cc(F)ccc2O1)C1CCc2cc(F)ccc2O1 (racemic) [nebivolol, α,α′-[iminobismethylene]bis[6-fluoro-3,4-dihydro-2H-1-benzopyran-2-methanol]] | 148 ± 10 | 218 ± 11 | 0.612 | marked improvement | 1.130 | 242 ± 17 | 193 ± 16 | –
2 | O=C(O)C1OC(OC(CNCC(O)C2CCc3cc(F)ccc3O2)C2CCc3cc(F)ccc3O2)C(O)C(O)C1O (single isomer, unassigned) [G-UDb, l-Nebivolol-11-O-β-D-glucuronide] | 139 ± 12 | 206 ± 12 | 0.618 | – | 1.144 | 225 ± 16 | 180 ± 13 | greatest activity
3 | O=C(O)C1OC(OC(CNCC(O)C2CCc3cc(F)ccc3O2)C2CCc3cc(F)ccc3O2)C(O)C(O)C1O (single isomer, unassigned) [G-UDd, l-Nebivolol-11′-O-β-D-glucuronide] | 117 ± 8 | 161 ± 11 | 0.606 | – | 1.193 | 193 ± 17 | 135 ± 13 | –
4 | O=C(O)C1OC(OC(CNCC(O)C2CCc3cc(F)ccc3O2)C2CCc3cc(F)ccc3O2)C(O)C(O)C1O [G-UDa, d-Nebivolol-11-O-β-D-glucuronide] | 144 ± 10 | 202 ± 12 | 0.605 | – | 1.122 | 238 ± 22 | 180 ± 16 | greatest activity
5 | O=C(O)C1OC(OC(CNCC(O)C2CCc3cc(F)ccc3O2)C2CCc3cc(F)ccc3O2)C(O)C(O)C1O [G-UDc, d-Nebivolol-11′-O-β-D-glucuronide] | 129 ± 10 | 188 ± 12 | 0.632 | – | 1.133 | 204 ± 13 | 166 ± 13 | –
6 | O[C@H](CNC[C@@H](O)[C@H]1CCc2cc(F)ccc2O1)[C@@H]1CCc2cc(F)ccc2O1 [d-nebivolol, reference compound] | 87 ± 6 | 127 ± 17 | 0.750 | marked improvement | 1.460 | 116 ± 6 | 87 ± 6 | –
7 | O[C@@H](CNC[C@H](O)[C@H]1CCc2cc(F)ccc2O1)[C@@H]1CCc2cc(F)ccc2O1 [l-nebivolol, reference compound] | 192 ± 9 | 268 ± 12 | 0.719 | marked improvement | 1.202 | 267 ± 13 | 223 ± 17 | –
